Patent US9415114B2, “Conformations of divergent peptides with mineral binding affinity” (KAOHSIUNG MEDICAL UNIVERSITY, priority 2011, dated 2016)

Assay: Hydroxylapatite column test (retention time on HAp column by HPLC)
Format: binding
Conditions: HAp column 0.7 x 5 cm, eluent 0.5 mM PBS pH 7.4, flow rate 0.25 mL/min, 220 nm; longer retention = higher mineral affinity
Description: Hydroxylapatite Column Test
Using the column which is filling hydroxylapatite particles to evaluate the affinity. The diameter and length of hydroxylapatite column are 0.7 and 5 cm, and experimented by High Performance Liquid Chromatography system. The elute solution is 0.5 mM PBS (pH 7.4), the flow rate is 0.25 mL/min, and the wavelength is 220 nm.

Row | Substance | retention time in hydroxylapatite column test
1 | HO-Gly-(Asp)6-NHAc [L1b] | 13.3 min
2 | H2N-(Gly)3-(Asp)3-NHAc [L1c] | 13.0 min
